This passage reports carcinogen call results from PubChem BioAssay AID1259411 (Chemical Carcinogenesis Research Information System (CCRIS), 2018).

In the series the test system is rodent carcinogenicity bioassays, tumor incidence. Description: CCRIS carcinogenicity studies. The method in brief:
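NCI-built, expert-reviewed records of carcinogenicity and related test outcomes (mutagenicity, tumor promotion/inhibition) compiled from published and report sources, historical span 1985-2011, not updated.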

Active and inactive are the calls of the source. How the calls were made is not given here.

For `CC1(C)O[C@@H]2C[C@H]3[C@@H]4CCC5=CC(=O)C=C[C@]5(C)[C@@]4(F)[C@@H](O)C[C@]3(C)[C@]2(C(=O)CO)O1`, for the setting “Species: RAT, Strain/Sex: SPRAGUE-DAWLEY/MALE, Route: ORAL, Dose: 0, 1.5 UG/ML IN DRINKING WATER FOR AN AVERAGE DAILY DOSE OF 12.7 UG/KG DURING WK10-20 THEN 4.8 UG/KG DURING WK 21-104 (S, Tumor Site: Type of Lesion: LIVER: HEPATOCELLULAR ADENOMA OR CARCINOMA”, the carcinogen call is “active; positive”.
On to `NC(=O)NC1NC(=O)NC1=O` (stereo not drawn), for which the carcinogen call is “inactive; negative” (Species: RAT, Strain/Sex: F344/FEMALE, Route: ORAL, Dose: 0, 2000 PPM IN DIET FOR 106 WK (STUDY DURATION: 130 WK)) and “inactive; negative” (Species: RAT, Strain/Sex: F344/MALE, Route: ORAL, Dose: 0, 2000 PPM IN DIET FOR 106 WK (STUDY DURATION: 130 WK)).
As to `FC(F)=C(F)F`, the carcinogen call runs as follows: (Species: MOUSE, Strain/Sex: B6C3F1/FEMALE, Route: INHALATION, Dose: 0, 312, 625, 1250 PPM 6 HR/D 5 D/WK FOR 95-96 WK (STUDY DURATION: 96 WK), Dose: 0, 312, 625, 1250 PPM 6 HR/D 5 D/WK FOR 95-96 WK (STUDY DURATION: 96 WK), Tumor Site: Type of Lesion: LIVER: HEMANGIOMA, HEMANGIOSARCOMA, HEPATOCELLULAR CARCINOMA, HEMATOPOIETIC SYSTEM: HISTIOCYTIC SARCOMA) “active; positive”; (Species: MOUSE, Strain/Sex: B6C3F1/MALE, Route: INHALATION, Dose: 0, 312, 625, 1250 PPM 6 HR/D 5 D/WK FOR 95-96 WK (STUDY DURATION: 96 WK), Dose: 0, 312, 625, 1250 PPM 6 HR/D 5 D/WK FOR 95-96 WK (STUDY DURATION: 96 WK), Tumor Site: Type of Lesion: LIVER: HEMANGIOMA, HEMANGIOSARCOMA, HEPATOCELLULAR CARCINOMA, HEMATOPOIETIC SYSTEM: HISTIOCYTIC SARCOMA) “active; positive”; (Species: RAT, Strain/Sex: F344/FEMALE, Route: INHALATION, Dose: 0, 312, 625, 1250 PPM 6 HR/D 5 D/WK FOR 104 WK (STUDY DURATION: 106 WK), Dose: 0, 312, 625, 1250 PPM 6 HR/D 5 D/WK FOR 104 WK (STUDY DURATION: 106 WK), Tumor Site: Type of Lesion: KIDNEY(RENAL TUBULE): ADENOMA, ADENOMA OR CARCINOMA, LIVER: HEMANGIOSARCOMA, HEPATOCELLULAR ADENOMA, HEPATOCELLULAR CARC) “active; positive”; (Species: RAT, Strain/Sex: F344/MALE, Route: INHALATION, Dose: 0, 156, 312, 625 PPM 6 HR/D 5 D/WK FOR 104 WK (STUDY DURATION: 106 WK), Dose: 0, 156, 312, 625 PPM 6 HR/D 5 D/WK FOR 104 WK (STUDY DURATION: 106 WK), Tumor Site: Type of Lesion: KIDNEY(RENAL TUBULE): ADENOMA, LIVER: HEPATOCELLULAR CARCINOMA, HEPATOCELLULAR ADENOMA OR CARCINOMA) “active; positive”.
Turning to `CN(C)C(=O)NN=O`, the carcinogen call is “active; positive” (Species: HAMSTER, Strain/Sex: SYRIAN/FEMALE, Route: SUBCUTANEOUS, Dose: 40 MG/KG 1/WK, Tumor Site: Type of Lesion: FORESTOMACH: SQUAMOUS CELL CARCINOMA, MAMMARY GLAND: ADENOCARCINOMA OR ADENOACANTHOMA, UTERUS: ADENOACANTHOMA, Tumor Site: Type of Lesion: FORESTOMACH: SQUAMOUS CELL CARCINOMA, MAMMARY GLAND: ADENOCARCINOMA OR ADENOACANTHOMA, UTERUS: ADENOACANTHOMA); “active; positive” (Species: HAMSTER, Strain/Sex: SYRIAN/MALE, Route: SUBCUTANEOUS, Dose: 40 MG/KG 1/WK, Tumor Site: Type of Lesion: FORESTOMACH: SQUAMOUS CELL CARCINOMA); “active; positive” (Species: MOUSE, Strain/Sex: C3H/FEMALE, Route: SUBCUTANEOUS, Dose: 80 MG/KG 1/WK (TOTAL AVE DOSE 1015 MG/KG), Tumor Site: Type of Lesion: LYMPHATIC SYSTEM: MALIGNANT LYMPHOMA); “active; positive” (Species: MOUSE, Strain/Sex: C3H/MALE, Route: SUBCUTANEOUS, Dose: 80 MG/KG 1/WK (TOTAL AVE DOSE 1073 MG/KG), Tumor Site: Type of Lesion: LYMPHATIC SYSTEM: MALIGNANT LYMPHOMA).
As to `CC(O)CN(N=O)C(N)=O` (stereo not drawn), the carcinogen call is “active; positive” (Species: HAMSTER, Strain/Sex: SYRIAN/FEMALE, Route: GAVAGE, Dose: 0, 16 MG/ML ((0.2 ML OF A SOLUTION IN ETHYL ACETATE/CORN OIL (1:2)) 1/WK FOR 24 WK (STUDY DURATION: LIFE SPAN), Tumor Site: Type of Lesion: LIVER: HEMANGIOSARCOMA, SPLEEN: HEMANGIOSARCOMA, FORESTOMACH: SQUAMOUS CELL CARCINOMA OR PAPILLOMA, Tumor Site: Type of Lesion: LIVER: HEMANGIOSARCOMA, SPLEEN: HEMANGIOSARCOMA, FORESTOMACH: SQUAMOUS CELL CARCINOMA OR PAPILLOMA); “active; positive” (Species: RAT, Strain/Sex: F344/FEMALE, Route: GAVAGE, Dose: 0, 8 MG/ML (TOTAL DOSE 0; 0.4 MMOL) IN 2 ML ETHYL ACETATE AND CORN OIL (1:2) 2/WK FOR 18 WK (STUDY DURATION: LIFETIME), Dose: 0, 8 MG/ML (TOTAL DOSE 0; 0.4 MMOL) IN 2 ML ETHYL ACETATE AND CORN OIL (1:2) 2/WK FOR 18 WK (STUDY DURATION: LIFETIME), Tumor Site: Type of Lesion: THYMUS: LYMPHOMA); “active; positive” (Species: RAT, Strain/Sex: F344/FEMALE, Route: GAVAGE, Dose: 0, 8 MG/ML IN 0.2 ML ETHYL ACETATE AND CORN OIL 2/WK FOR 18 WK (STUDY DURATION: LIFESPAN), Tumor Site: Type of Lesion: THYMUS: TUMOR); “active; positive” (Species: RAT, Strain/Sex: F344/FEMALE, Route: INTRAVESICULAR, Dose: 0, 3.2 MG 2/WK FOR 30 WK (STUDY DURATION: LIFETIME), Tumor Site: Type of Lesion: BLADDER: TUMOR); “active; positive” (Species: RAT, Strain/Sex: F344/MALE, Route: GAVAGE, Dose: 0, 8 MG/ML (TOTAL DOSE 0; 0.4 MMOL) IN 2 ML ETHYL ACETATE AND CORN OIL (1:2) 2/WK FOR 18 WK (STUDY DURATION: LIFETIME), Dose: 0, 8 MG/ML (TOTAL DOSE 0; 0.4 MMOL) IN 2 ML ETHYL ACETATE AND CORN OIL (1:2) 2/WK FOR 18 WK (STUDY DURATION: LIFETIME), Tumor Site: Type of Lesion: THYMUS: LYMPHOMA); “active; positive” (Species: RAT, Strain/Sex: F344/MALE, Route: GAVAGE, Dose: 0, 8 MG/ML IN 0.2 ML ETHYL ACETATE AND CORN OIL 2/WK FOR 18 WK (STUDY DURATION: LIFESPAN), Tumor Site: Type of Lesion: THYMUS: TUMOR).
Consider `CCn1c2ccccc2c2cc(N)ccc21`, for which the carcinogen call was “active; positive” (Species: MOUSE, Strain/Sex: B6C3F1/FEMALE, Route: ORAL, Dose: 0, 800, 1200 PPM IN DIET FOR 78 WK (STUDY DURATION: 95-97 WK), Dose: 0, 800, 1200 PPM IN DIET FOR 78 WK (STUDY DURATION: 95-97 WK), Tumor Site: Type of Lesion: LIVER: HEPATOCELLULAR CARCINOMA); “active; positive” (Species: MOUSE, Strain/Sex: B6C3F1/MALE, Route: ORAL, Dose: 0, 800, 1200 PPM IN DIET FOR 78 WK (STUDY DURATION: 94-96 WK), Dose: 0, 800, 1200 PPM IN DIET FOR 78 WK (STUDY DURATION: 94-96 WK), Tumor Site: Type of Lesion: LIVER: HEPATOCELLULAR CARCINOMA, HEPATOCELLULAR ADENOMA OR CARCINOMA); “active; positive” (Species: RAT, Strain/Sex: F344/FEMALE, Route: ORAL, Dose: 0, 800, 2000 PPM IN DIET FOR 78 WK (STUDY DURATION: 105-110 WK), Dose: 0, 800, 2000 PPM IN DIET FOR 78 WK (STUDY DURATION: 105-110 WK), Tumor Site: Type of Lesion: LIVER: NEOPLASTIC NODULE OR HEPATOCELLULAR CARCINOMA, UTERUS OR ENDOMETRIUM: ADENOCARCINOMA (NOS), EAR (ZYMBAL GLAND): S, Tumor Site: Type of Lesion: LIVER: NEOPLASTIC NODULE OR HEPATOCELLULAR CARCINOMA, UTERUS OR ENDOMETRIUM: ADENOCARCINOMA (NOS), EAR (ZYMBAL GLAND): S); “active; positive” (Species: RAT, Strain/Sex: F344/MALE, Route: ORAL, Dose: 0, 800, 2000 PPM IN DIET FOR 78 WK (STUDY DURATION: 104-109 WK), Dose: 0, 800, 2000 PPM IN DIET FOR 78 WK (STUDY DURATION: 104-109 WK), Tumor Site: Type of Lesion: INTEGUMENTARY SYSTEM: BASAL CELL OR SQUAMOUS CELL CARCINOMA OR SQUAMOUS CELL PAPILLOMA, LIVER: HEPATOCELLULAR CARCINOMA).
Turning to `Nc1nc2c(ncn2[C@@H]2C[C@H](CO)[C@H]2CO)c(=O)[nH]1`, the carcinogen call is “active; positive” (Species: Mouse, Strain/Sex: CD-1/Female (60/Group), Route: Oral, Dose: 0, 30, 150, 750 mg/kg in diet for 104 wk, Dose: 0, 30, 150, 750 mg/kg in diet for 104 wk, Tumor Site: Type of Lesion: Upper digestive tract: squamous cell papilloma and carcinoma (0/60 and 0/60 in controls vs 0/60, 3/60, and 4/60, respect); “active; positive” (Species: Mouse, Strain/Sex: CD-1/Male (60/Group), Route: Oral, Dose: 0, 10, 50, 250 mg/kg in diet for 104 wk, Dose: 0, 10, 50, 250 mg/kg in diet for 104 wk, Tumor Site: Type of Lesion: Upper digestive tract: squamous cell papilloma or carcinoma (0/60 and 0/60 in controls vs 0/60, 3/60, and 4/60, respecti).
